The values that follow come from patent publication US20180231524A1, “IN VITRO METHODS OF IDENTIFYING MODULATORS OF NEUROMUSCULAR JUNCTION ACTIVITY” (MEMORIAL SLOAN-KETTERING CANCER CENTER, priority 2015, published 2018).

The subject of test [1] is rodent GSK3β homologs. The conditions noted are these: cited from earlier work.
Test [2] has as its system co-cultures of MNs with adult-derived myoblasts (hMA). Description: myasthenia gravis model: light-induced muscle contraction in co-cultures. In kind it is cell-based, human. Particulars: PYR 10 μM on day 3; cultures treated with MG IgG (#1 & 2 combined) and complement; n=8. An excerpt: Next we sought to address whether the functional neuromuscular co-cultures were suitable to model a classic human neuromuscular disease. Myasthenia gravis (MG) (Toyka et al., 1977; Verschuuren et al., 2013) is caused by the emergence of autoantibodies against proteins in the neuromuscular junction (e.g. the acetylcholine receptor, AChR). Binding of the pathogenic antibody to AChR activates the complement cascade, resulting in destruction of the neuromuscular endplate (Sahashi et al., 1980), which ultimately causes progressive muscle weakness in patients. We therefore quantified light-induced muscle contractions in functional co-cultures of MNs with adult-derived myoblasts (hMA) before (FIG. 4A, D) and after the incubation with IgG fractions (200 nM total IgG) from two MG patients with clearly elevated AChR antibody titers (#1 and #2). Sandoglobulin (SG) polyvalent IgG served as control. […] Next, we assessed if the myasthenic phenotype was reversible after washout of MG IgG and complement, mimicking plasmapheresis therapy (Gold et al., 2008). […]
Maturing co-cultures were observed under 10× brightfield illumination while intermittently opening the shutter for fluorescent light (470 nm, 2mW/mm^2, approx. 300 ms pulse). […] For the quantification of movement multiple representative high contrast regions were automatically traced (MetaMorph Software). […]

Test [3] concerns myofibers in MN co-cultures with adult muscle (hMA). Description: myasthenia gravis model: calcium imaging. In kind it is cell-based, human. The conditions noted are these: MG#1 IgG and complement cultures. The procedure: To further characterize the myasthenic phenotype we performed calcium imaging experiments. […] Therefore cultures were pretreated with control and MG#1 IgG and human complement for 2 days. Calcium imaging was performed in regions with similar amounts of muscle fibers and dense innervation (FIG. 4K, L). […] In addition, the percentage of reactive fibers was reduced in cultures treated with MG#1 IgG and complement compared to controls (FIG. 4N, CTRL 78% vs. MG 32%, two-tailed unpaired t test, p<0.001, t=4.79). […] Finally we sought to confirm the complement attack on the neuromuscular junction. For this purpose, cultures treated with MG#1 IgG and human complement as well as cultures treated with CTRL IgG and human complement for 24 h were stained with an antibody recognizing the human complement fragment C3c. […] (FIG. 4O, P).
(§1) Myotubes or co-cultures on glass coverslips were incubated with the ratiometric calcium dye Fura-2 and imaged under continuous perfusion in normal Tyrode's solution. Myotubes were stimulated by acetylcholine. Co-cultures were illuminated for optogenetic stimulation for 10 ms at 470 nm (4 mW/mm2) every 5 s.
Serum (containing complement) from 5 healthy donors was pooled and added to the media where indicated (2% v/v). […]

Test [4] concerns co-cultures of ChR2-expressing hESC-derived spinal motorneurons with human adult (hMA) and fetal (hMF) myofibers. Description: light-induced muscle twitches in neuromuscular co-cultures. The conditions noted are these: 2 μM, optogenetic stimulation 470 nm, all tested cultures. In kind it is cell-based. As to the method:
To establish the neuromuscular co-culture, we used the purified ChR2-expressing spinal motorneurons (day 20-25) and plated them onto pre-differentiated skeletal myofibers (day 5-10). After plating, hESC-derived spinal MN cell bodies mostly remained within the neuronal clusters but extended axons across the adult and fetal muscle (up to 2 mm within the first week, FIG. 3A, E). Co-cultures were tested for the establishment of neuromuscular connectivity in weekly intervals. For this purpose the cultures were observed under bright field illumination and intermittently stimulated with blue light pulses. Six to eight weeks after initiation of the co-culture, the elongated cylindrical myoblast-derived muscle fibers remained morphologically intact and started to contract in response optogenetic stimulation (470 nm, 0.2 Hz, 300 ms pulse width). FIGS. 3B, F show mature co-cultures with both muscle types. FIG. 3C, G show the quantification of muscle twitches of individual fibers from such cultures. The lower panels show long term experiments over 8.5 min (FIG. 3C at 0.2 Hz, FIG. 3G at 0.1 Hz). […]
Maturing co-cultures were observed under 10× brightfield illumination while intermittently opening the shutter for fluorescent light (470 nm, 2mW/mm^2, approx. 300 ms pulse). […] For the quantification of movement multiple representative high contrast regions were automatically traced (MetaMorph Software).

Test [5] relates to myofibers in functional neuromuscular co-cultures. Description: calcium imaging in neuromuscular co-cultures under optogenetic stimulation. Type of test: cell-based, human. Particulars: 470 nm optogenetic stimulation, Fura2; 6/6 cultures. As to the method: (§2) We next characterized key physiologic parameters in the functional neuromuscular cultures. Matured co-cultures were incubated with the calcium dye Fura2 and mounted into an imaging chamber for continuous perfusion. […] The lower panel of FIG. 3J confirms long-term stability of neuro-muscular excitability in a calcium imaging experiment over 45 minutes. In a separate study, skeletal myotubes (n=5), identified by their cylindrical and striated appearance under phase contrast microscopy and by their ability to undergo light-induced twitching were selected for intracellular recordings (FIG. 3K). Light-responsive myotubes were impaled with sharp electrodes and muscle APs were recorded during 447 nm optogenetic stimulation at frequencies from 0.2 to 2 Hz. Spike fidelity was 100% at 0.2 Hz, 93.3±6.7% at 0.5 Hz, 75±15.0% at 1 Hz and 80±10.0% at 2 Hz. […] To address the stability of neuromuscular connectivity over the course of several days and weeks, contractile regions (n=7) were assessed every 5 days.
as §1

The subject of test [6] is light-responsive skeletal myotubes in neuromuscular co-cultures. Description: sharp electrode recording of light-induced myofiber action potentials. In kind it is cell-based, human. Particulars: 2 μM; 447 nm optogenetic stimulation 0.2 to 2 Hz. As to the method: as §2
On matured EYFP+ MNs whole-cell current clamp recordings were performed at room temperature. Light-evoked APs were elicited using a 447 nm diode laser (OEM Laser) with light pulses of 5 ms at approximately 1 mW/mm2. Myotubes contracting in response to light stimulation were impaled with a sharp electrode for intracellular recordings.

SMILES strings stand for the structures.

For `Cc1c[nH]c(-c2cnc(NCCNc3ccc(C#N)cn3)nc2-c2ccc(Cl)cc2Cl)n1` [CHIR99021, 6-(2-(4-(2,4-dichlorophenyl)-5-(4-methyl-1H-imidazol-2-yl)pyrimidin-2-ylamino)ethylamino)nicotinonitrile], the “IC50 values against rodent GSK3β homologs” value in test [1] is “nanomolar”.
For `CN(C)C(=O)Oc1ccc[n+](C)c1` [pyridostigmine], in test [2], the “change of movement after pyridostigmine in MG cultures” value was “+22%”. The “percentage of reactive fibers after PYR in MG cultures” value in test [3] was “tendency towards a higher percentage of reactive fibers, which did not reach significance”. The “light-induced calcium spike after PYR in MG cultures” value in test [3] (n=8) is on record as “small but significant increase”.
With `CC(=O)O[C@H]1C[C@@H]2CC[C@@H]3[C@H](CC[C@@]4(C)[C@H]3C[C@H]([N+]3(C)CCCCC3)[C@@H]4OC(C)=O)[C@@]2(C)C[C@@H]1N1CCCCC1` [vecuronium], the “light induced muscle twitches” value in test [4] was “completely blocked”; in test [4] (listed as Vecuronium) it was “blocks light-evoked contractility”. Further, in test [5], the “light-evoked calcium spikes in myofibers” value is listed as “could be blocked”. The “light-induced APs in myofibers” value in test [6] is “completely blocked light-induced APs in myofibers in a reversible manner”.
